In the supplement of paper PMC10307832:

Columns and labels:
Test in all cases: relative viability (nuclei count vs DMSO), 5 days (fraction); higher = more cells survive
SGI-1776 + Alpelisib = compound: CN1CCC(CNc2ccc3ncc(-c4cccc(OC(F)(F)F)c4)n3n2)CC1 [SGI-1776] + Cc1nc(NC(=O)N2CCC[C@H]2C(N)=O)sc1-c1ccnc(C(C)(C)C(F)(F)F)c1 [Alpelisib] (partner 2 µM)
How it was run: (§1)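 Lung cancer cell lines were pin-tool dosed in 1536-well plates on the day after seeding, with either a lone drug or a fixed anchor-drug dose plus five library-drug doses (not always all listed) in √10 steps. Nuclei were counted on 4× images after 5 days. Relative viability is the ratio of treated-well to vehicle-well nuclei counts, with each value a median of duplicate plates.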

SGI-1776 + Bortezomib = compound: CN1CCC(CNc2ccc3ncc(-c4cccc(OC(F)(F)F)c4)n3n2)CC1 [SGI-1776] + CC(C)C[C@H](NC(=O)[C@H](Cc1ccccc1)NC(=O)c1cnccn1)B(O)O [Bortezomib] (partner 0.002 µM)
How it was run: as §1

[1] = compound: C1COCCN1C2=NC(=NC3=C2OC4=C3C=CC=N4)C5=CC(=CC=C5)NC(=O)C6=CN=C(C=C6)N + O=C(CCCCCCC(=O)Nc1ccccc1)NO [Vorinostat] (partner 1 µM)
How it was run: as §1

[2] = compound: C1COCCN1C2=NC(=NC3=C2OC4=C3C=CC=N4)C5=CC(=CC=C5)NC(=O)C6=CN=C(C=C6)N + NC(=O)Nc1cc(-c2cccc(F)c2)sc1C(=O)N[C@H]1CCCNC1 [AZD7762] (partner 0.2 µM)
How it was run: as §1

| Cell Line | relative viability (SGI-1776 + Alpelisib; first compound 0.08 µM) | relative viability (SGI-1776 + Alpelisib; first compound 0.8 µM) | relative viability (SGI-1776 + Alpelisib; first compound 2.53 µM) | relative viability (SGI-1776 + Alpelisib; first compound 8 µM) | relative viability (SGI-1776 + Bortezomib; first compound 0.08 µM) | relative viability (SGI-1776 + Bortezomib; first compound 0.8 µM) | relative viability (SGI-1776 + Bortezomib; first compound 2.53 µM) | relative viability (SGI-1776 + Bortezomib; first compound 8 µM) | relative viability ([1]; first compound 0.02 µM) | relative viability ([1]; first compound 0.06325 µM) | relative viability ([1]; first compound 0.2 µM) | relative viability ([1]; first compound 0.6325 µM) | relative viability ([1]; first compound 2 µM) | relative viability ([2]; first compound 0.02 µM) | relative viability ([2]; first compound 0.06325 µM) | relative viability ([2]; first compound 0.2 µM) | relative viability ([2]; first compound 0.6325 µM) | relative viability ([2]; first compound 2 µM) |
| --- | --- | --- | --- | --- | --- | --- | --- | --- | --- | --- | --- | --- | --- | --- | --- | --- | --- | --- |
| HCC-15 | 0.912 | 0.836 | 0.895 | 0.71 | 1.03 | 1.03 | 1.02 | 0.886 | 0.859 | 0.929 | 0.881 | 0.792 | 0.575 | 1.29 | 1.28 | 1.24 | 1.06 | 0.982 |
| HCC-44 | 0.88 | 0.876 | 0.733 | 0.571 | 0.942 | 0.908 | 0.98 | 0.895 | 1.03 | 1.15 | 1.2 | 1.22 | 1.02 | 0.907 | 1.05 | 1.04 | 0.991 | 1.14 |
| HCC-78 | 0.37 | 0.333 | 0.315 | 0.248 | 0.48 | 0.516 | 0.516 | 0.45 | 0.444 | 0.5 | 0.431 | 0.326 | 0.334 | 0.628 | 0.642 | 0.576 | 0.685 | 0.589 |
| HCC-366 | 0.51 | 0.335 | 0.372 | 0.189 | 0.919 | 1.11 | 0.98 | 1.12 | 0.395 | 0.36 | 0.327 | 0.444 | 0.249 | 0.329 | 0.419 | 0.213 | 0.216 | 0.174 |
| HCC-827 | 1.08 | 0.993 | 1.06 | 0.849 | 1.11 | 0.984 | 1.05 | 1.04 | 0.792 | 1.05 | 0.868 | 0.661 | 0.811 | 0.191 | 0.184 | 0.167 | 0.202 | 0.198 |
| HOP-62 | 0.914 | 0.942 | 0.979 | 0.807 | 0.862 | 0.914 | 0.74 | 0.632 | 0.753 | 0.768 | 0.674 | 0.58 | 0.373 | 0.732 | 0.494 | 0.434 | 0.633 | 0.291 |
| LC-2-ad | 1.06 | 1 | 0.94 | 0.731 | 1.06 | 0.976 | 1.03 | 0.987 | 0.712 | 0.695 | 0.738 | 0.702 | 0.508 | 0.939 | 0.9 | 0.831 | 0.805 | 0.585 |
| LCLC-97TM1 | 0.195 | 0.238 | 0.239 | 0.22 | 0.775 | 0.557 | 0.549 | 0.567 | 0.804 | 0.862 | 0.751 | 0.755 | 0.43 | 0.19 | 0.236 | 0.231 | 0.258 | 0.256 |
| LCLC-103H | 0.996 | 0.862 | 0.939 | 0.924 | 1.06 | 1.05 | 1.01 | 0.859 | 0.806 | 0.804 | 0.699 | 0.728 | 0.698 | 0.809 | 0.784 | 0.8 | 0.81 | 0.631 |
| LOU-NH91 | 0.783 | 0.691 | 0.707 | 0.533 | 0.482 | 0.565 | 0.489 | 0.458 | 0.95 | 0.975 | 0.926 | 0.86 | 0.78 | 0.733 | 0.793 | 0.734 | 0.748 | 0.59 |
| LU99A | 0.614 | 0.525 | 0.552 | 0.406 | 1.3 | 1.15 | 1.53 | 1.03 | 0.435 | 0.546 | 0.365 | 0.418 | 0.309 | 0.433 | 0.416 | 0.233 | 0.319 | 0.295 |
| LXF-289 | 1 | 1.06 | 1.03 | 1 | 1.03 | 1.04 | 1.02 | 0.973 | 0.792 | 0.895 | 0.619 | 0.821 | 0.547 | 1.08 | 1.3 | 1.08 | 1.09 | 0.67 |
| NCI-H23 | 0.722 | 0.725 | 0.616 | 0.57 | 0.997 | 1.09 | 1.07 | 0.991 | 0.609 | 0.635 | 0.5 | 0.473 | 0.468 | 0.241 | 0.23 | 0.24 | 0.174 | 0.216 |
| NCI-H322M | 0.883 | 0.934 | 0.928 | 0.756 | 1.3 | 1.26 | 1.21 | 1.07 | 0.823 | 0.85 | 0.851 | 0.904 | 0.764 | 0.543 | 0.49 | 0.575 | 0.56 | 0.516 |
| NCI-H441 | 0.751 | 0.478 | 0.697 | 0.588 | 0.376 | 0.443 | 0.529 | 0.332 | 0.759 | 0.918 | 0.798 | 0.701 | 0.377 | 0.96 | 1.17 | 1.1 | 1.09 | 0.738 |
| NCI-H460 | 0.488 | 0.481 | 0.433 | 0.121 | 1.18 | 1.2 | 1.11 | 0.82 | 1.51 | 0.788 | 0.907 | 0.559 | 0.221 | 0.609 | 0.784 | 0.587 | 0.653 | 0.359 |
| NCI-H596 | 0.529 | 0.439 | 0.357 | 0.349 | 0.924 | 1.08 | 0.95 | 0.973 | 0.618 | 0.551 | 0.642 | 0.489 | 0.465 | 1.15 | 1.06 | 0.97 | 1.06 | 0.929 |
| NCI-H647 | 1.31 | 1.15 | 1.1 | 0.558 | 1.24 | 0.964 | 0.888 | 0.837 | 0.625 | 0.757 | 0.502 | 0.433 | 0.29 | 0.481 | 0.627 | 0.373 | 0.527 | 0.359 |
| NCI-H650 | 1.19 | 1.04 | 1.04 | 0.921 | 0.95 | 0.755 | 0.836 | 0.622 | 0.495 | 0.412 | 0.474 | 0.515 | 0.392 | 1.08 | 1 | 0.993 | 0.809 | 0.852 |
| NCI-H727 | 0.75 | 0.532 | 0.655 | 0.538 | 0.888 | 1.13 | 0.855 | 0.724 | 1.14 | 1.22 | 1.05 | 1.22 | 1.12 | 0.528 | 0.678 | 0.812 | 0.602 | 0.755 |
| NCI-H838 | 1.1 | 1.01 | 0.95 | 0.874 | 0.848 | 0.973 | 0.764 | 0.353 | 0.725 | 0.754 | 0.676 | 0.646 | 0.5 | 0.95 | 0.967 | 0.999 | 0.827 | 0.755 |
| NCI-H1355 | 0.835 | 0.97 | 0.847 | 0.66 | 1.2 | 1.24 | 1.24 | 1.03 | 0.695 | 0.737 | 0.614 | 0.598 | 0.538 | 0.875 | 0.765 | 0.713 | 0.66 | 0.539 |
| NCI-H1437 | 0.867 | 0.961 | 0.99 | 0.634 | 0.587 | 0.525 | 0.536 | 0.352 | 0.82 | 0.919 | 0.818 | 0.816 | 0.432 | 1.1 | 1.07 | 1.12 | 1.13 | 0.91 |
| NCI-H1651 | 0.97 | 0.957 | 0.834 | 0.752 | 0.976 | 0.923 | 0.874 | 0.889 | 0.382 | 0.595 | 0.563 | 0.537 | 0.529 | 0.507 | 0.563 | 0.476 | 0.461 | 0.36 |
| NCI-H1666 | 1.06 | 1 | 1.01 | 0.49 | 0.81 | 0.826 | 0.918 | 0.56 | 1.07 | 1.09 | 0.966 | 0.736 | 0.865 | 0.91 | 0.827 | 0.861 | 0.757 | 0.811 |
| NCI-H1734 | 0.69 | 0.798 | 0.733 | 0.559 | 0.903 | 1.11 | 0.88 | 0.739 | 0.815 | 0.858 | 0.612 | 0.706 | 0.522 | 0.661 | 0.612 | 0.497 | 0.498 | 0.422 |
| NCI-H1755 | 0.996 | 0.944 | 0.885 | 0.795 | 0.932 | 0.953 | 0.971 | 0.774 | 0.7 | 0.868 | 0.698 | 0.635 | 0.562 | 0.45 | 0.4 | 0.397 | 0.414 | 0.348 |
| NCI-H1915 | 1.09 | 1.12 | 1.11 | 1.03 | 1.01 | 0.985 | 0.932 | 0.935 | 0.539 | 0.572 | 0.536 | 0.536 | 0.397 | 0.72 | 0.767 | 0.716 | 0.726 | 0.664 |
| NCI-H1975 | 0.674 | 0.598 | 0.501 | 0.322 | 0.393 | 0.399 | 0.35 | 0.277 | 0.675 | 0.689 | 0.631 | 0.624 | 0.389 | 0.72 | 0.67 | 0.608 | 0.557 | 0.51 |
